Earlier results as cited in patent US10328076B2, “Pharmaceutical composition comprising a triazole antifungal agent and method for preparation thereof” (PHARMATHEN S.A., priority 2014, dated 2019).
Read-outs that look alike come from different tables or passages of the source.

Solubility (in acetone): freely soluble | Solubility (in dichlorometane): freely soluble | Solubility (in water): very slightly soluble
SMILES: C[C@@H](c1ncncc1F)[C@](O)(Cn1cncn1)c1ccc(F)cc1F [Voriconazole, (2R,3S)-2-(2,4-difluorophenyl)-3-(5-fluoropyrimidin-4-yl)-1-(1H-1,2,4-triazol-1-yl)butan-2-ol]
